Reference: patent US12098148B2, “Therapeutic compounds” (C4X Discovery Limited, priority 2018, dated 2024)
Read-outs that look alike come from different tables or passages of the source.

Experiments:
[1] = tested on: NQO1 mRNA in BEAS-2B cells; assay: Beas2B NQO1 mRNA cell based assay; design: species or system human; settings: 24 h compound treatment, increase in NQO1 mRNA vs vehicle (0.1% DMSO), read-out: EC50
Method in brief: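 Relative NQO1 transcript level derived by ΔΔCT with human β-actin as internal control, using direct-lysate one-step RT-qPCR. Cells were BEAS-2B, plated overnight then treated with compound for 24 h.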

[2] = target: human KEAP1 (N-term, residues 321-609) (Homo sapiens, UniProt Q14145); assay: biochemical;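 note: fluorescence polarization competition assay of Kelch domain binding to NRF2, 12-point 1:3 dilution series from 10 µM, read after 1 h at room temperature, floor 10 nM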
human KEAP1 (N-term, residues 321-609), sequence (Q14145 321-609): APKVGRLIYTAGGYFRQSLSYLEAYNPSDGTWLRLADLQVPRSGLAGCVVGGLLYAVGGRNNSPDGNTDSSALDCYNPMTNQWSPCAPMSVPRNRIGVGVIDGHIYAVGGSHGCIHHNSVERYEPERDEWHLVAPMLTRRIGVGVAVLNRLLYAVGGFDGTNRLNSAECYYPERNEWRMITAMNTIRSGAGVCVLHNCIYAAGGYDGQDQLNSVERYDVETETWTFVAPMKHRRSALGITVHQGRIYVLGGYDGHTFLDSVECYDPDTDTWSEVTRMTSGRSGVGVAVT

IC50 [2] [nM] | Structure (SMILES) | EC50 ([1]; Homo sapiens, BEAS-2B, 24 h) [nM] | EC50 [1] [nM]
11 | Cc1ccc(OCc2nnn(C)c2C(F)(F)F)c2c1CCN(C(=O)[C@@H]1CCCC[C@]1(C)C(=O)O)[C@@H]2CN1CCCC1=O [Example 174, (1S,2R)-1-Methyl-2-((S)-5-methyl-8-((1-methyl-5-(trifluoromethyl)-1H-1,2,3-triazol-4-yl)methoxy)-1-((2-oxopyrrolidin-1-yl)methyl)-1,2,3,4-tetrahydroisoquinoline-2-carbonyl)cyclohexane-1-carboxylic acid] | 6.6 | –
4.9 | CC(=O)N1CC[C@H](Oc2ccc(Cl)c3c2[C@@H](CN2CC4(CC4)CC2=O)N(C(=O)[C@@H]2CCCC[C@]2(C)C(=O)O)CC3)C1 [Example 188, (1S,2R)-2-((S)-8-(((S)-1-acetylpyrrolidin-3-yl)oxy)-5-chloro-1-((6-oxo-5-azaspiro [2.4]heptan-5-yl)methyl)-1,2,3,4-tetrahydroisoquinoline-2-carbonyl)-1-methylcyclohexane-1-carboxylic acid] | 7.9 | –
7.7 | Cn1cc(COc2cccc3c2[C@@H](CN2C(=O)c4ccccc4C2=O)N(C(=O)[C@@H]2CCCC[C@@H]2C(=O)O)CC3)nn1 [Example 9, (1S,2R)-2-((S)-1-((1,3-dioxoisoindolin-2-yl)methyl)-8-((1-methyl-1H-1,2,3-triazol-4-yl)methoxy)-1,2,3,4-tetrahydroisoquinoline-2-carbonyl)cyclohexane-1-carboxylic acid] | 24 | –
5 | Cn1nnc(COc2ccc(Cl)c3c2[C@@H](CN2CC4(CC4)CC2=O)N(C(=O)[C@@H]2CC[C@H](O)C[C@]2(C)C(=O)O)CC3)c1C(F)F [Example 223, (1S,2R,5S)-2-((S)-5-chloro-8-((5-(difluoromethyl)-1-methyl-1H-1,2,3-triazol-4-yl)methoxy)-1-((6-oxo-5-azaspiro[2.4]heptan-5-yl)methyl)-1,2,3,4-tetrahydroisoquinoline-2-carbonyl)-5-hydroxy-1-methylcyclohexane-1-carboxylic acid] | 15 | –
5.2 | Cn1nnc(COc2ccc(Br)c3c2[C@@H](CN2Cc4ccccc4C2=O)N(C(=O)[C@@H]2CCCC[C@@H]2C(=O)O)CC3)c1C(F)F [Example 41, (1S,2R)-2-((S)-5-bromo-8-((5-(difluoromethyl)-1-methyl-1H-1,2,3-triazol-4-yl)methoxy)-1-((1-oxoisoindolin-2-yl)methyl)-1,2,3,4-tetrahydroisoquinoline-2-carbonyl)cyclohexane-1-carboxylic acid] | 1.5 | –
8.3 | Cn1cnc(COc2ccc(Br)c3c2[C@@H](CN2Cc4ccccc4C2=O)N(C(=O)[C@@H]2CCCC[C@@H]2C(=O)O)CC3)n1 [Example 39, (1S,2R)-2-((S)-5-bromo-8-((1-methyl-1H-1,2,4-triazol-3-yl)methoxy)-1-((1-oxoisoindolin-2-yl)methyl)-1,2,3,4-tetrahydroisoquinoline-2-carbonyl)cyclohexane-1-carboxylic acid] | 45 | –
8.5 | O=C(O)[C@H]1CCCC[C@H]1C(=O)N1CCc2c(Br)ccc(OCc3noc4ccccc34)c2[C@H]1CN1CCCC1=O [Example 67] | 4.8 | –
5.3 | Cc1nnc(COc2ccc(Cl)c3c2[C@@H](CN2CC4(CC4)CC2=O)N(C(=O)[C@@H]2CCCC[C@]2(C)C(=O)O)CC3)n1C [Example 179, (1S,2R)-2-((S)-5-chloro-8-((4,5-dimethyl-4H-1,2,4-triazol-3-yl)methoxy)-1-((6-oxo-5-azaspiro[2.4]heptan-5-yl)methyl)-1,2,3,4-tetrahydroisoquinoline-2-carbonyl)-1-methylcyclohexane-1-carboxylic acid] | 4.1 | –
5.2 | Cn1nnc(COc2ccc(Cl)c3c2[C@@H](CN2CC(C(F)(F)F)CC2=O)N(C(=O)[C@@H]2CCCC[C@]2(C)C(=O)O)CC3)c1C(F)F (single isomer, unassigned) [Example 213] | – | 2.2
13 | O=C(O)[C@H]1CCCC[C@H]1C(=O)N1CCc2c(Cl)ccc(OCc3nccn3CC(F)F)c2[C@H]1CN1Cc2ccccc2C1=O [Example 52, (1S,2R)-2-((S)-5-chloro-8-((1-(2,2-difluoroethyl)-1H-imidazol-2-yl)methoxy)-1-((1-oxoisoindolin-2-yl)methyl)-1,2,3,4-tetrahydroisoquinoline-2-carbonyl)cyclohexane-1-carboxylic acid] | 140 | –
6.2 | C[C@]1(C(=O)O)CCCC[C@H]1C(=O)N1CCc2c(Cl)ccc(OCc3nnc4n3CCOC4)c2[C@H]1CN1CC2(CC2)CC1=O [Example 176, (1S,2R)-2-((S)-5-chloro-8-((5,6-dihydro-8H-[1,2,4]triazolo[3,4-c][1,4]oxazin-3-yl)methoxy)-1-((6-oxo-5-azaspiro [2.4]heptan-5-yl)methyl)-1,2,3,4-tetrahydroisoquinoline-2-carbonyl)-1-methylcyclohexane-1-carboxylic acid] | 2.8 | –
5.3 | C[C@]1(C(=O)O)CCCC[C@H]1C(=O)N1CCc2c(Cl)ccc(OCc3cncnc3C(F)F)c2[C@H]1CN1CC2(CC2)CC1=O [Example 135, (1S,2R)-2-((S)-5-chloro-8-((4-(difluoromethyl)pyrimidin-5-yl)methoxy)-1-((6-oxo-5-azaspiro[2.4]heptan-5-yl)methyl)-1,2,3,4-tetrahydroisoquinoline-2-carbonyl)-1-methylcyclohexane-1-carboxylic acid] | 0.91 | –
5.1 | C[C@@H]1CC(=O)N(C[C@@H]2c3c(OCc4nnn(C)c4C(F)(F)F)ccc(Cl)c3CCN2C(=O)[C@@H]2CCCC[C@]2(C)C(=O)O)C1 [Example 132, (1S,2R)-2-((S)-5-chloro-1-(((R)-4-methyl-2-oxopyrrolidin-1-yl)methyl)-8-((1-methyl-5-(trifluoromethyl)-1H-1,2,3-triazol-4-yl)methoxy)-1,2,3,4-tetrahydroisoquinoline-2-carbonyl)-1-methylcyclohexane-1-carboxylic acid] | 5.7 | –
6.7 | C[C@H]1CCN(C[C@@H]2c3c(OCc4nnn(C)c4C(F)(F)F)ccc(Cl)c3CCN2C(=O)[C@@H]2CCCC[C@]2(C)C(=O)O)C1=O [Example 130, (1S,2R)-2-((S)-5-chloro-1-(((S)-3-methyl-2-oxopyrrolidin-1-yl)methyl)-8-((1-methyl-5-(trifluoromethyl)-1H-1,2,3-triazol-4-yl)methoxy)-1,2,3,4-tetrahydroisoquinoline-2-carbonyl)-1-methylcyclohexane-1-carboxylic acid] | 21 | –
6.4 | COCCn1nnc(COc2ccc(Cl)c3c2[C@@H](CN2CCCC2=O)N(C(=O)[C@@H]2CCCC[C@]2(C)C(=O)O)CC3)c1C(F)F [Example 145, (1S,2R)-2-((S)-5-chloro-8-((5-(difluoromethyl)-1-(2-methoxyethyl)-1H-1,2,3-triazol-4-yl)methoxy)-1-((2-oxopyrrolidin-1-yl)methyl)-1,2,3,4-tetrahydroisoquinoline-2-carbonyl)-1-methylcyclohexane-1-carboxylic acid] | 4.9 | –
6.1 | C[C@@H]1CC(=O)N(C[C@@H]2c3c(OCc4nnn(C)c4C(F)F)ccc(Cl)c3CCN2C(=O)[C@@H]2CCCC[C@]2(C)C(=O)O)C1 [Example 111, (1S)-2-((S)-5-Chloro-8-((5-(difluoromethyl)-1-methyl-1H-1,2,3-triazol-4-yl)methoxy)-1-1-(((R)-4-methyl-2-oxopyrrolidin-1-yl)methyl)-1,2,3,4-tetrahydroisoquinoline-2-carbonyl)-1-methylcyclohexane-1-carboxylic acid] | 2.5 | –
6.3 | Cc1conc1COc1ccc(Cl)c2c1[C@@H](CN1CCCC1=O)N(C(=O)[C@@H]1CCCC[C@]1(C)C(=O)O)CC2 [Example 137, (1S,2R)-2-((S)-5-chloro-8-((4-methylisoxazol-3-yl)methoxy)-1-((2-oxopyrrolidin-1-yl)methyl)-1,2,3,4-tetrahydroisoquinoline-2-carbonyl)-1-methylcyclohexane-1-carboxylic acid] | 6.7 | –
5.1 | Cn1nnc(COc2c(F)cc(Cl)c3c2[C@@H](CN2CCCC2=O)N(C(=O)[C@@H]2CCCC[C@]2(C)C(=O)O)CC3)c1C(F)F [Example 147, (1S,2R)-2-((S)-5-chloro-8-((5-(difluoromethyl)-1-methyl-1H-1,2,3-triazol-4-yl)methoxy)-7-fluoro-1-((2-oxopyrrolidin-1-yl)methyl)-1,2,3,4-tetrahydroisoquinoline-2-carbonyl)-1-methylcyclohexane-1-carboxylic acid] | 0.29 | –
16 | Cc1noc(COc2ccc(Cl)c3c2[C@@H](CN2CCCC2=O)N(C(=O)[C@@H]2CCCC[C@]2(C)C(=O)O)CC3)n1 [Example 167, (1S,2R)-2-((S)-5-chloro-8-((3-methyl-1,2,4-oxadiazol-5-yl)methoxy)-1-((2-oxopyrrolidin-1-yl)methyl)-1,2,3,4-tetrahydroisoquinoline-2-carbonyl)-1-methylcyclohexane-1-carboxylic acid] | 280 | –
8.4 | C[C@]1(C(=O)O)CCCC[C@H]1C(=O)N1CCc2c(Cl)ccc(OC3CCn4cnnc43)c2[C@H]1CN1CC2(CC2)CC1=O (stereo partly drawn) [Example 209, (1S,2R)-2-((1S)-5-chloro-8-((6,7-dihydro-5H-pyrrolo [2,1-c][1,2,4]triazol-7-yl)oxy)-1-((6-oxo-5-azaspiro[2.4]heptan-5-yl)methyl)-1,2,3,4-tetrahydroisoquinoline-2-carbonyl)-1-methylcyclohexane-1-carboxylic acid] | 290 | –
